Data taken from US11339144B2 (Navitor Pharmaceuticals, Inc., priority 2017, dated 2022).

target: HA-GST-Rheb (GTP-γ-S loaded) activating mTORC1 (Homo sapiens (Human), UniProt Q15382); assay: Rheb-dependent in vitro kinase assay (Rheb-IVK; LanthaScreen or Western readout); format: biochemical; conditions: Rheb-dependent in vitro kinase assay; read-out: IVK IC50
Sequence (Q15382 1-181): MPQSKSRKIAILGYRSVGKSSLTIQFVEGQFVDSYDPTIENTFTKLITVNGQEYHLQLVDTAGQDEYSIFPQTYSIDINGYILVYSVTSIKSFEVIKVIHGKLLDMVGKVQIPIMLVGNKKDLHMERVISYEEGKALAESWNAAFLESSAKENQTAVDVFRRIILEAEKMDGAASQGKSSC

IC50, 10 to 100 µM:
Clc1cccc(Oc2cccc3[nH]ccc23)c1 [I-284, 4-(3-chlorophenoxy)-1H-indole]

IC50, 100 to 300 µM:
OCc1nc2cc(OCc3ccccc3)c(Cl)cc2n1Cc1nc[nH]n1 [I-403, (1-((1H-1,2,4-triazol-3-yl)methyl)-5-(benzyloxy)-6-chloro-1H-benzo[d]imidazol-2-yl)methanol]
Clc1ccc2[nH]c(-c3ncco3)nc2c1Oc1ccccc1 [I-427, 2-(5-chloro-4-phenoxy-1H-benzo[d]imidazol-2-yl)oxazole]

IC50, > 100 µM:
COc1ccc(Cn2cnc3c(Br)cc(Oc4ccccc4)cc32)cc1 [I-429]
OCc1nc2cc(OCc3ccccc3)c(Cl)cc2n1CC(F)(F)F [I-457]
CCn1c(CO)nc2cc(Cl)c(OCc3cccc(Cl)c3)cc21 [I-448]
Cn1cc(-c2cc(Oc3ccccc3)cc3[nH]c(CO)cc23)cn1 [I-227]
Cn1ccc2c(Oc3ccc(Cl)cc3)cccc21 [I-268]
Cn1c(CO)cc2c(Oc3cccc(F)c3)cccc21 [I-262]
Cn1ccc2c(Oc3cccc(F)c3)cccc21 [I-266]
CCn1c(CO)nc2cc(OCc3ccc(Cl)cc3)c(Cl)cc21 [I-449]
CCn1c(CO)nc2cc(Cl)c(OCc3cccc(F)c3)cc21 [I-443]
OCc1nc2ccc(Oc3ccccc3)cc2n1Cc1nc[nH]n1 [I-397]
CCn1c(CO)nc2cc(OCc3ccccc3)cc(Cl)c21 [I-412]
OCc1cc2c(C3CCCNC3)cc(Oc3ccccc3)cc2[nH]1 (centres unmarked) [I-219]
OCc1nc2cc(Cl)c(Cl)c(OCC3CCNC3)c2[nH]1 (centres unmarked) [I-460]
Cn1c(CO)cc2c(Oc3ccc(F)cc3)cccc21 [I-273]
[O-][S+](c1cccc(Cl)c1)c1cccc2[nH]ccc12 (centres unmarked) [I-233]
OCc1nc2c(Oc3ccc(Cl)cc3)cccc2n1Cc1nc[nH]n1 [I-408]
N#CCc1nc2c(OCc3ccccc3)c(Cl)ccc2[nH]1 [I-469]
N#Cc1ccc(Cn2c(-c3ncco3)nc3cc(Cl)c(Cl)cc32)cc1 [I-453]
CCn1cnc2cc(Cl)c(OCc3ccccc3)cc21 [I-435]
Clc1ccc(CSc2cccc3[nH]ccc23)cc1Cl [I-191]
OCc1nc2c(OCC3CCCCO3)c(Cl)c(Cl)cc2[nH]1 (centres unmarked) [I-398]
OCc1cc2c(Cl)cc(Oc3ccccc3)cc2n1Cc1c[nH]cn1 [I-174]
O=S(=O)(c1ccccc1)c1cc(Br)c2cc(CO)[nH]c2c1 [I-230]
Cc1cc(Oc2ccccc2)cc2c1cc(CO)n2C [I-245]
Clc1ccc(Sc2cccc3cc[nH]c23)cc1 [I-217]
[O-][S+](c1ccccc1)c1cc(Br)c2cc(CO)[nH]c2c1 (centres unmarked) [I-229]
[O-][S+](c1ccccc1Cl)c1cccc2[nH]ccc12 (centres unmarked) [I-231]
O=C1CCC(COc2c(Cl)c(Cl)cc3[nH]c(CO)nc23)N1 (centres unmarked) [I-419]
OCc1cc2c(Oc3ccccc3)cccc2[nH]1 [I-287]
OCc1cc2c(Br)cc(OCc3ccccc3)cc2n1Cc1ccccc1 [I-224]
OCc1cc2c(C3CCNCC3)cc(Oc3ccccc3)cc2[nH]1 [I-199]
Cn1c(CO)nc2cc(Cl)c(OCc3ccccc3)cc21 [I-426]
Clc1cc2nc(-c3ncco3)n(Cc3cccc(-c4nn[nH]n4)c3)c2cc1Cl [I-438]
CCOCc1nc2c(Cl)cc(OCc3ccccc3)cc2n1CC [I-415]
CCn1c(CO)nc2cc(Cl)c(OCCc3ccccc3)cc21 [I-431]
O=S(=O)(c1ccccc1Cl)c1cccc2[nH]ccc12 [I-232]
Nc1ncncc1COc1c(Cl)c(Cl)cc2[nH]c(CO)nc12 [I-409]
CCn1c(CO)nc2cc(OCc3ccc(F)cc3)c(Cl)cc21 [I-444]
